# Reference: patent US20220213060A1, “Crystal Form of Quinazolinone Compound and Preparation Method Therefor” (Luoxin Healthcare Science and Technology Development …, priority 2019, published 2022)
# Read-outs that look alike come from different tables or passages of the source.
# Tests used:
# [1] = molecular target: Mutant PI3Kα (E545K) (Homo sapiens, UniProt P42336, E545K); assay: In vitro enzymatic activity test, mutant PI3Kα (E545K); format: biochemical
# Text: (§1) The crystal form A of the compound represented by formula (I) has a strong inhibitory effect on both wild-type and mutant PI3Kα kinases. […] The crystal form A of the compound represented by formula (I) has excellent selectivity to the other three subtypes of PI3K, and its inhibitory activity against PI3Kα is 149/7.44/6.61 times higher than that of PI3Kβ/δ/γ, respectively. The specific experimental method was the same as experimental embodiment 8. […] The specific experimental method was the same as experimental embodiment 9.
# (§2) The lipid kinase reaction was carried out in a suitable substrate and under ATP conditions, then the activity of the kinase was detected by ADP-Glo™ kit in two steps. Step 1: the kinase reaction was terminated, in which the residual ATP was completely removed and only ADP was retained; step 2: kinase detection reagent was added to convert ADP to ATP, accompanied by fluorescein/luciferase reaction. Finally, the fluorescence value output was converted into kinase activity.
# (§3) Experimental Materials and Equipment:
# (§4) 2) Kit: ADP-Glo™ lipid kinase and PIP2:3PS kit (Promega #V1792)
# (§5) The reagent kit contains: 1 mM PIP2:3PS, 10× lipid dilution buffer, 1 M magnesium chloride, 10 mM ATP, 10 mM ADP, ADP-Glo reagent, detection buffer and detection substrate. […]
# (§6) (16) Fluorescence values were measured on the Envision instrument.
# [2] = molecular target: Mutant PI3Kα (H1047R) (Homo sapiens, UniProt P42336, H1047R); assay: In vitro enzymatic activity test, mutant PI3Kα (H1047R); format: biochemical
# Text: as §1, §2, §3, §4, §5, §6
# [3] = molecular target: T1, PI3Kδ (Homo sapiens, UniProt O00329); assay: In vitro enzymatic activity test (ADP-Glo lipid kinase), PI3Kδ; format: biochemical; details: inhibitory activity against PI3Kα relative to PI3Kδ
# T1 construct: purchased Millipore 14-604-K
# Experimental: as §2, §3, §4
# The reagent kit contains: 1 mM PIP2:3PS, 10× lipid dilution buffer, 1 M magnesium chloride, 10 mM ATP, 10 mM ADP, ADP-Glo reagent, detection buffer and detection substrate.
# 3) Reaction plate: OptiPlate-384, white and transparent (PerkinElmer #6007299)
# 1) 10× reaction buffer: 500 mM HEPES, pH 7.5, 500 mM NaCl, […]; BSA: 10% stock solution, self-made
# 2) Final test system conditions: 1× reaction system: 50 mM of HEPES, 50 mM of NaCl, 3 mM of MgCl2, 0.01% BSA (freshly prepared on the day of experiment), 1% DMSO (v/v)+/−compound
# 3) Reaction system: 3 μL of mixture of enzyme and substrate (1:1)+2 μL of ATP/MgCl2 mixture+5 μL of ADP-Glo reagent+10 μL of detection reagent.
# The specific experimental operations were as follows: […]
# as §6
# [4] = test system: Jeko-1; assay: Akt phosphorylation inhibition in Jeko-1 cells (high expression of PI3Kδ); format: cell-based; details: Jeko-1 cell line with high expression of PI3Kδ
# [5] = PK test of plasma on the last day of administration in the BT-474 xenograft study; format: in vivo, BALB/c nude mice; details: BT-474 tumor-bearing nude mice
# Experimental: 0.5-1 hours after administration, the blood concentration reached the peak. The plasma exposure at the dose to play the effect was 69 300 nM*h.
# [6] = Beagle dog absorption test (pharmacokinetics); format: in vivo, Beagle dogs
# Experimental: Beagle dogs were given the crystal form A of the compound represented by formula (I) by single or multiple oral administration and single intravenous injection respectively, with 6 dogs in each group, half male and half female. The single oral doses were 0.3, land 3 mg/kg respectively; the multiple doses were 1 mg/kg, once a day for 7 consecutive days; the single intravenous dose was 0.3 mg/kg. According to the drug plasma concentration-time curve, the pharmacokinetic parameters were calculated, the results are shown in Table 15. The vehicle for drug preparation in group 1 was 5% HP-beta-CD, 5% solutol, pH=8 aqueous solution, the vehicles for groups 2, 3, 4 were 0.5% MC, 0.2% Tween80 aqueous solution.
# [7] = both sexes, beagle, dog, plasma, po, 0.3 mg/kg, male and female Beagle dogs, single
# [8] = both sexes, dog, plasma, iv, male and female Beagle dogs, vein, 0.3 mg/kg, single
# [9] = both sexes, dog, plasma, male and female Beagle dogs, oral, 0.3 mg/kg, single
# [10] = both sexes, dog, plasma, male and female Beagle dogs, oral, 1 mg/kg once a day, day 7
# [11] = both sexes, dog, plasma, male and female Beagle dogs, oral, 1 mg/kg, day 1
# [12] = both sexes, dog, plasma, male and female Beagle dogs, oral, 3 mg/kg, single
# [13] = male and female beagle dogs, oral, 1 mg/kg for 7 consecutive days, 7 days after the administration
# [14] = male and female beagle dogs, oral, 1 mg/kg, 1 day after the administration
# Sequence of Mutant PI3Kα (E545K) (P42336 whole entry E545K): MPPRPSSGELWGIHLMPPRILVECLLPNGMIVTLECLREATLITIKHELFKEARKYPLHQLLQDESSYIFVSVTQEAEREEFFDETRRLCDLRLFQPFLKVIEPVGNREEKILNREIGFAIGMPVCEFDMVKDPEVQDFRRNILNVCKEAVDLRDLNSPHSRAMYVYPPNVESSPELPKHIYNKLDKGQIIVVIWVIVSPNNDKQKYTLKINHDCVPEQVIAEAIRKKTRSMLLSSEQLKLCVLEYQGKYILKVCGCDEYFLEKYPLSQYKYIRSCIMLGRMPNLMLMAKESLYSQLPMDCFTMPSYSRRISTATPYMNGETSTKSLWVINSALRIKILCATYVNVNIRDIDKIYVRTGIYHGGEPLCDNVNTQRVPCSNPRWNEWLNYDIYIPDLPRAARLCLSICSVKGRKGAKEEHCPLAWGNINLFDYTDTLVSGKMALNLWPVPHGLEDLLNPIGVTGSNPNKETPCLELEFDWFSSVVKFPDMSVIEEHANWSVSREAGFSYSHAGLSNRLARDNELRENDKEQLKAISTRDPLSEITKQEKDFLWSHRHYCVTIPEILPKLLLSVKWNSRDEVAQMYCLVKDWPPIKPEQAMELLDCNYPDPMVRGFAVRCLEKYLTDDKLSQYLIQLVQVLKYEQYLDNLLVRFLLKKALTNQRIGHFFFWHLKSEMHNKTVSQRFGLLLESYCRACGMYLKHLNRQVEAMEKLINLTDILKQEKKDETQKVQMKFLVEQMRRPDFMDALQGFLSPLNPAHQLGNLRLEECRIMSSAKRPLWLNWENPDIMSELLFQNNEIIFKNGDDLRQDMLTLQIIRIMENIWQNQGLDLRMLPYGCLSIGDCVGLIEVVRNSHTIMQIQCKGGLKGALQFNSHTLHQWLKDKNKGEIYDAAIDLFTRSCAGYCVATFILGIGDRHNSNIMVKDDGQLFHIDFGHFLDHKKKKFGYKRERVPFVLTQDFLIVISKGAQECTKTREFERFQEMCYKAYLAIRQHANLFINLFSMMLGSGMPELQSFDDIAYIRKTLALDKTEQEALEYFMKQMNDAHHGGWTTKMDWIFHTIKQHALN
# Sequence of Mutant PI3Kα (E545K) (P27986 whole entry partner): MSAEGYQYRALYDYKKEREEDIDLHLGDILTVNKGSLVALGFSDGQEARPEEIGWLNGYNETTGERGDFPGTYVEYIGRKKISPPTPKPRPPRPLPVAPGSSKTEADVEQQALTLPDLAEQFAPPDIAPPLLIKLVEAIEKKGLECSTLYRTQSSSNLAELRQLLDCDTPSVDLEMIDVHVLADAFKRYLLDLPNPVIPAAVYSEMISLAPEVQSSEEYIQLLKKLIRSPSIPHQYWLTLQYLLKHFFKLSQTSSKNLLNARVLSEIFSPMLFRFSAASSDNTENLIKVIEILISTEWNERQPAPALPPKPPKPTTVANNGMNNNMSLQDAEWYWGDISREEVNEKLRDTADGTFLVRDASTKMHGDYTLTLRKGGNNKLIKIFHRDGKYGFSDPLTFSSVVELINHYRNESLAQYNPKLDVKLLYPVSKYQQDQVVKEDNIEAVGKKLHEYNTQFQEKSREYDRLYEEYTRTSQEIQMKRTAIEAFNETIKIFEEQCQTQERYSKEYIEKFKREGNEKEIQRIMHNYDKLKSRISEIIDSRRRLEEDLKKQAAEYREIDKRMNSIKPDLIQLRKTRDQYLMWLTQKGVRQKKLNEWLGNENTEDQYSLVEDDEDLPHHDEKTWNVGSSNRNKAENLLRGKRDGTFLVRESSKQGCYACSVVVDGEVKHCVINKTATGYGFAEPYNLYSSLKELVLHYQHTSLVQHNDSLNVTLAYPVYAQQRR
# T1 sequence (O00329 whole entry): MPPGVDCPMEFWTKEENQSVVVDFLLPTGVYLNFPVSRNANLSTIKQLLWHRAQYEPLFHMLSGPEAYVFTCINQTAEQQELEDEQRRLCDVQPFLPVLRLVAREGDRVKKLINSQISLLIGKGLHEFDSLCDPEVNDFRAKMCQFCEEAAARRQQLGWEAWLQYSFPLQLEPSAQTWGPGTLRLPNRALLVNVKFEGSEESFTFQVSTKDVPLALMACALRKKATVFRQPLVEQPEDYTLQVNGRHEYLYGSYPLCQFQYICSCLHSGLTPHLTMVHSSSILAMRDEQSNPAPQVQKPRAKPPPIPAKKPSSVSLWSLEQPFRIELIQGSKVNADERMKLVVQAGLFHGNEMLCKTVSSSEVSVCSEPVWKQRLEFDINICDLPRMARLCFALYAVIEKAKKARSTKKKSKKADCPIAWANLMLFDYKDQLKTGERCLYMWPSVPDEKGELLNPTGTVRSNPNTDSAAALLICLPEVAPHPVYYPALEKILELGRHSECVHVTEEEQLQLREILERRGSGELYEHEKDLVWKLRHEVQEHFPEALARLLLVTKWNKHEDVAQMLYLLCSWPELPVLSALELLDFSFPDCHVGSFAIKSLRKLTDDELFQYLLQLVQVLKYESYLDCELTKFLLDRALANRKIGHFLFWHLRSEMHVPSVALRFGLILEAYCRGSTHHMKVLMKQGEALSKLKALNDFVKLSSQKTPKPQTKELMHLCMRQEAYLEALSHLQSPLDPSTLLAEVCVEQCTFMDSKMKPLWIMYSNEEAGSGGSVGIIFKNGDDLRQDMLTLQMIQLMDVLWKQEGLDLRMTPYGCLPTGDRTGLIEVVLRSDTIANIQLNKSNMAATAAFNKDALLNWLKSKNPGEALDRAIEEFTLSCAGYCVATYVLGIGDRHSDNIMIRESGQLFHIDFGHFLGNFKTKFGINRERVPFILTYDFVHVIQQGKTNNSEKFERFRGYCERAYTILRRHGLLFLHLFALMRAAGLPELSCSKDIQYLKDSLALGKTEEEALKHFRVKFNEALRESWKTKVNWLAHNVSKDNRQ
# T1 sequence (P27986 whole entry partner): as the sequence (P27986 whole entry partner) above
# Sequence of Mutant PI3Kα (H1047R) (P42336 whole entry H1047R): as the sequence (P42336 whole entry E545K) above, with K545E, H1047R counted along it
# Sequence of Mutant PI3Kα (H1047R) (P27986 whole entry partner): as the sequence (P27986 whole entry partner) above
smiles,measurement,setting,value
CNC(=O)[C@H](C)Cn1cnc2ccc(-c3cnc(OC)c(NS(=O)(=O)c4ccc(F)cc4F)c3)cc2c1=O,IC50,[1],1.13 nM
same,IC50,[2],0.69 nM
same,Selectivity PI3Kα/δ (kinase),[3],7.44 times
same,"Selectivity PI3Kα over PI3Kδ, Akt phosphorylation inhibitory activity in cells",[4],23.0 times
same,Plasma exposure at the dose to play the effect,"[5]; oral 10 mg/kg, last day of administration",69 300 nM*h
same,Plasma exposure with the increase of administration dose,"[5]; oral 10, 20, 40 mg/kg",increased linearly
same,Time after administration at which the blood concentration reached the peak,"[5]; oral, last day of administration",0.5 to 1 h
same,AUC(0-t),"[6]; both sexes, beagle, dog, plasma, iv, 0.3 mg/kg, male and female Beagle dogs, vein, single",1.47 ± 0.353 µM·h
same,AUC(0-t),[6]; [7],1.29 ± 0.715 µM·h
same,bioavailability,[6]; [7],87.8%
same,AUC(0-t),"[6]; both sexes, beagle, dog, plasma, po, 1 mg/kg, male and female Beagle dogs, oral, 1 mg/kg once a day, day 7",5.88 µM·h
same,AUC(0-t),"[6]; both sexes, beagle, dog, plasma, po, 1 mg/kg, male and female Beagle dogs, oral, 1 mg/kg, day 1",4.98 ± 0.946 µM·h
same,AUC(0-t),"[6]; both sexes, beagle, dog, plasma, po, 3 mg/kg, male and female Beagle dogs, single",14.8 ± 2.51 µM·h
same,C0,[6]; [8],0.512 µM
same,clearance,[6]; [8],0.371 ± 0.0894 L/h/kg
same,half-life,[6]; [8],6.32 ± 1.62 h
same,Vd,"[6]; both sexes, dog, plasma, iv, male and female Beagle dogs, vein, 0.3 mg/kg, single, read-out: Vdss",2.47 ± 0.391 L/kg
same,Tmax,[6]; [9],2 ± 1.1 h
same,half-life,[6]; [9],6.92 ± 3.16 h
same,Cmax,"[6]; both sexes, dog, plasma, male and female Beagle dogs, oral, 0.3 mg/kg, single, read-out: Cmax",0.158 ± 0.0684 µM
same,Cmax at 7 days,[6]; [10],0.85 µM
same,Tmax at 7 days,[6]; [10],1.33 h
same,half-life at 7 days,[6]; [10],5.18 ± 0.487 h
same,Tmax,[6]; [11],1.67 ± 0.516 h
same,half-life,[6]; [11],5 ± 1.44 h
same,Cmax,"[6]; both sexes, dog, plasma, male and female Beagle dogs, oral, 1 mg/kg, day 1, read-out: Cmax",0.656 ± 0.0307 µM
same,Tmax,[6]; [12],3.08 ± 1.5 h
same,half-life,[6]; [12],6.55 ± 1.76 h
same,Cmax,"[6]; both sexes, dog, plasma, male and female Beagle dogs, oral, 3 mg/kg, single, read-out: Cmax",1.88 ± 0.274 µM
same,AUC0-last,[6]; [13],5.88 ± 0.697 µM·h
same,Cmax,[6]; [13],850±106 nm
same,AUC0-last,[6]; [14],4.98 ± 0.946 µM·h
same,Cmax,[6]; [14],656±30.7 nm
